Test [1] deals with Staphylococcus capitis. The test can be described thus: Antibacterial activity against Staphylococcus capitis. Format: functional.
The subject of test [2] is Escherichia coli. The test can be described thus: Antibacterial activity against Escherichia coli. It counts as functional.
Test [3] has as its target Peptide deformylase (Escherichia coli) (UniProt P0A6K3). In words: Inhibition against Escherichia coli Peptide deformylase was measured at a concentration of 1 uM.

Values after ≈ are worked out from the molar mass of the structure shown.

Chain of Peptide deformylase (Escherichia coli) (P0A6K3 whole entry, looked up): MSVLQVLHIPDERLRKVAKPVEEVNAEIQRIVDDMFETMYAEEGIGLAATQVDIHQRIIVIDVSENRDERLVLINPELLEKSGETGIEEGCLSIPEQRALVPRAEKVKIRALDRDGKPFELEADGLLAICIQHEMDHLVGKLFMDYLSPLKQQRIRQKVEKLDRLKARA

With `CN(C)C(=O)[C@@H](NC(=O)[C@H](CC1CCCCC1)CN(O)C=O)C(C)(C)C`, the results for the MIC in test [1] and in test [2] were 25 µM (≈ 9.24 µg/mL) and 50 µM (≈ 18.5 µg/mL), respectively.

On to `COc1ccc(C[C@H](CN(O)C=O)C(=O)N[C@H](C(=O)N(C)C)C(C)(C)C)cc1`, for which the MIC in test [1] and in test [2] was over 200 µM in each case.

`C=CC[C@H](CN(O)C=O)C(=O)N[C@H](C(=O)N(C)C)C(C)(C)C`: the MIC in test [1] was over 200 µM; in test [2] it was 50 µM (≈ 15.7 µg/mL).

Consider `CCCC[C@H](C(=O)N[C@H](C(=O)N(C)C)C(C)(C)C)N(O)C=O`, for which the inhibition in test [3] worked out at 30%. The MIC in test [1] and in test [2] was over 200 µM each time.

As to `C=CCC[C@H](CN(O)C=O)C(=O)N[C@H](C(=O)N(C)C)C(C)(C)C`, the MIC in test [1] was determined as 200 µM (≈ 65.5 µg/mL); in test [2] it was 25 µM (≈ 8.19 µg/mL).

Consider `CN(C)C(=O)[C@@H](NC(=O)[C@H](Cc1ccccc1)CN(O)C=O)C(C)(C)C`, for which the MIC in test [1] came out at 50 µM (≈ 18.2 µg/mL); in test [2], 25 µM (≈ 9.09 µg/mL).

In the case of `CC(C)C[C@H](CN(O)C=O)C(=O)N[C@H](C(=O)N(C)C)C(C)(C)C`, the MIC is 200 µM (≈ 65.9 µg/mL) in test [1] and 100 µM (≈ 32.9 µg/mL) in test [2].

In the case of `CC[C@H](CN(O)C=O)C(=O)N[C@H](C(=O)N(C)C)C(C)(C)C`, the MIC is over 200 µM in test [1] and 200 µM (≈ 60.3 µg/mL) in test [2].

On to `CN(C)C(=O)[C@@H](NC(=O)[C@@H](CN(O)C=O)C1CCCC1)C(C)(C)C`, for which the MIC in test [1] and in test [2] was over 200 µM throughout.

As to `CCC[C@H](CN(O)C=O)C(=O)N[C@H](C(=O)N(C)C)C(C)(C)C`, the MIC is over 200 µM in test [1] and 50 µM (≈ 15.8 µg/mL) in test [2].

In the case of `CCSC[C@H](CN(O)C=O)C(=O)N[C@H](C(=O)N(C)C)C(C)(C)C`, the results for the minimum inhibitory concentration (MIC) in test [1] and in test [2] were over 200 µM and 25 µM (≈ 8.69 µg/mL), respectively.

`CCCC[C@H](CCN(O)C=O)C(=O)N[C@H](C(=O)N(C)C)C(C)(C)C`: the MIC in test [1] and in test [2] was over 200 µM throughout.

In the case of `CC#CC[C@H](CN(O)C=O)C(=O)N[C@H](C(=O)N(C)C)C(C)(C)C`, the MIC in test [1] was 100 µM (≈ 32.5 µg/mL); in test [2], 50 µM (≈ 16.3 µg/mL).

For the molecule `C[C@H](CN(O)C=O)C(=O)N[C@H](C(=O)N(C)C)C(C)(C)C`, the MIC in test [1] and in test [2] was over 200 µM throughout.

As for `CC(C)[C@H](CN(O)C=O)C(=O)N[C@H](C(=O)N(C)C)C(C)(C)C`, the MIC in test [1] and in test [2] was over 200 µM throughout.

On to `CN(C)C(=O)[C@@H](NC(=O)[C@H](CC1CCCC1)CN(O)C=O)C(C)(C)C`, for which the MIC in test [1] and in test [2] was 12.5 µM (≈ 4.44 µg/mL) throughout.

In the case of `CCCC[C@@H](C(=O)N[C@H](C(=O)N(C)C)C(C)(C)C)C(C)N(O)C=O` (some centres undefined), the MIC in test [1] and in test [2] was over 200 µM in each case.

Consider `CC(C)CC[C@H](CN(O)C=O)C(=O)N[C@H](C(=O)N(C)C)C(C)(C)C`, for which the MIC in test [1] was found to be 200 µM (≈ 68.7 µg/mL); in test [2], 50 µM (≈ 17.2 µg/mL).

Turning to `CCCCCCC[C@H](CN(O)C=O)C(=O)N[C@H](C(=O)N(C)C)C(C)(C)C`, the MIC in test [1] and in test [2] was over 200 µM throughout.

In test [3], `CCCC[C@@H](C(=O)N[C@H](C(=O)N(C)C)C(C)(C)C)N(O)C=O` showed an inhibition of 20%. Further, the MIC in test [1] and in test [2] was over 200 µM in each case.

For the molecule `CCCCCCCC[C@H](CN(O)C=O)C(=O)N[C@H](C(=O)N(C)C)C(C)(C)C`, the MIC in test [1] and in test [2] was over 200 µM each time.

Regarding `CN(C)C(=O)[C@@H](NC(=O)[C@@H](CN(O)C=O)c1ccc(Cl)cc1)C(C)(C)C`, the MIC in test [1] and in test [2] was over 200 µM in each case.

For `CCCCC[C@H](CN(O)C=O)C(=O)N[C@H](C(=O)N(C)C)C(C)(C)C`, the MIC in test [1] and in test [2] was 25 µM (≈ 8.59 µg/mL) each time.

For the molecule `CCCCCC[C@H](CN(O)C=O)C(=O)N[C@H](C(=O)N(C)C)C(C)(C)C`, the MIC in test [1] is over 200 µM; in test [2] it was 100 µM (≈ 35.7 µg/mL).

`CCCC[C@@H](CN(O)C=O)C(=O)N[C@H](C(=O)N(C)C)C(C)(C)C`: the MIC in test [1] and in test [2] was over 200 µM each time.

For `CN(C)C(=O)[C@@H](NC(=O)[C@@H](CN(O)C=O)CN1CCCCC1)C(C)(C)C`, the MIC in test [1] and in test [2] was over 200 µM each time.

The record behind these values is ChEMBL document CHEMBL1146620, “Structure-activity relationships of the peptide deformylase inhibitor BB-3497: modification of the methylene spacer and the P1' side chain” (Bioorg Med Chem Lett, 2003).
